Legend:
[1] = Cytotoxicity by MTS staining in uninfected MAGI-CCR5 cells; assay type: cell-based; settings: human, read-out: TC50
Protocol: The anti-viral activity of dihydropyrimidines was shown by inhibition of virus replication in MAGI-CCR5 cells. MAGI-CCR5 cells are derived from HeLa-CD4-LTR-β-galactosidase cells. The cells have been engineered to express high levels of CD4 and CCR5 and contain one copy of the HIV-1 LTR promoter driving expression of the β-galactosidase gene upon HIV-1 Tat transactivation. On the day preceding the assay, the cells were plated at 1.0×10^4 cells per well and maintained at 37° C. and 5% CO2 in a humidified incubator. Total cell count and viability was visually assessed using a hemacytometer and trypan blue exclusion. Compounds were evaluated at six concentrations (triplicate wells/concentration). On the day of assay setup, compound dilutions were prepared at two-times (2×) the final concentrations. Media was decanted and wells were replenished with 50 μl of 2× compounds, followed by the addition of 50 μl of diluted virus. Identical uninfected assays were prepared for parallel cytotoxicity testing.

[2] = test system: HIV-1Ba-L; experiment: Inhibition of virus replication in MAGI-CCR5 cells (β-galactosidase reporter); assay type: cell-based; settings: HIV-1Ba-L in MAGI-CCR5 cells; for IC50: 48 hours, β-galactosidase reporter expression, read-out: IC50
Protocol: The anti-viral activity of dihydropyrimidines was shown by inhibition of virus replication in MAGI-CCR5 cells. MAGI-CCR5 cells are derived from HeLa-CD4-LTR-β-galactosidase cells. The cells have been engineered to express high levels of CD4 and CCR5 and contain one copy of the HIV-1 LTR promoter driving expression of the β-galactosidase gene upon HIV-1 Tat transactivation. On the day preceding the assay, the cells were plated at 1.0×10^4 cells per well and maintained at 37° C. and 5% CO2 in a humidified incubator. Total cell count and viability was visually assessed using a hemacytometer and trypan blue exclusion.
Compounds were evaluated at six concentrations (triplicate wells/concentration). On the day of assay setup, compound dilutions were prepared at two-times (2×) the final concentrations. Media was decanted and wells were replenished with 50 μl of 2× compounds, followed by the addition of 50 μl of diluted virus. Identical uninfected assays were prepared for parallel cytotoxicity testing.
Evaluation of Dihydropyrimidines vs. HIV-1Ba-L in MAGI-CCR5 Cells

[3] = test system: HIV-1Ba-L; experiment: HIV-1Ba-L replication in PBMCs (supernatant RT end-point); settings: HIV-1Ba-L in PBMCs, seven days, RT end-point
Protocol: Evaluation of Dihydropyrimidines vs. HIV-1Ba-L in Peripheral Blood Mononuclear Cells (PBMCs)
Cultures of pooled phytohemagglutinin stimulated peripheral blood mononuclear cells (PBMC) were seeded into a 96-well plate at plating density of 5×10^4 cells/well. Compounds were serially diluted into media in ½-log increments using a high test of […] and […] of each concentration (nine total concentrations). Cells were infected with HIV strains HIV-1Ba-L and NL4-3 at an MOI=0.1. The PBMCs were cultured for seven days in an humidified incubator maintained at 37° C., 5% CO2 atmosphere. At the assay end-point, the supernatant was collected and analyzed for reverse transcriptase activity. For the RT assay, tritiated thymidine triphosphate (3H-TTP, 80 Ci/mmol) was diluted 1:1 dH2O:Ethanol at 1 mCi/ml. Poly rA:oligo dT template:primer was prepared as a stock solution by combining 150 μl poly rA (20 mg/ml) with 0.5 mL oligo dT (20 units/ml) and 5.35 ml sterile dH2O followed by aliquoting (1.0 ml) and storage at −20° C. The RT reaction buffer contained of 125 ml 1.0 M EGTA, 125 ml dH2O, 125 ml 20% Triton X100, 50 ml 1.0 M Tris (pH 7.4), 50 ml 1.0 M DTT, and 40 ml 1.0 M MgCl2. The final reaction mixture was prepared by combining 1 part 3H-TTP, 4 parts dH2O, 2.5 parts poly rA:oligo dT stock and 2.5 parts reaction buffer. To each well, ten microliters of the reaction mixture and 15 μl of virus containing supernatant were added. The plates were incubated at 37° C. for 60 minutes. Following incubation, the reaction volume was spotted onto DE81 filter-mats, washed 5 times for 5 minutes each in a 5% sodium phosphate buffer or 2×SSC. […] were washed 2 times for 1 minute each in distilled water, 2 times for 1 minute each in 70% ethanol, and then dried. Incorporated radioactivity (counts per minute, CPM) was quantified using standard liquid scintillation techniques.

Molecule | CC50 at 48 h [1] [µM] | TI (TC50/IC50) [2] | IC50 ([2]; Human immunodeficiency virus 1) [µM] | IC50 [3] [µM] | IC50 [2] [µM]
CC1=C(c2nc(-c3ccc(C#N)cc3)cs2)C(c2cccnc2Cl)NC(=O)N1 (centres unmarked) [Example 4] | ≥ 100 | C (C < 50.0 to 10.0) | 1 to 5 |  | 
CC1=C(c2nc(-c3ccc(C#N)cc3)cs2)C(c2cc3ccccc3nc2Cl)NC(=O)N1 (centres unmarked) [Example 5] | ≥ 100 | D (D < 10.0) | 5 to 100 |  | 
CC1=C(c2nc(-c3ccc(C#N)cc3)cs2)C(c2ccc3ccccc3n2)NC(=O)N1 (centres unmarked) [Example 6] | ≥ 100 | C (C < 50.0 to 10.0) | 1 to 5 |  | 
CC1=C(c2nc(-c3ccc(C#N)cc3)cs2)C(c2ccccn2)NC(=O)N1 (centres unmarked) [Example 7] | ≥ 100 | C (C < 50.0 to 10.0) | 1 to 5 |  | 
CC1=C(c2nc(-c3ccc(C#N)cc3)cs2)C(c2cccnc2)NC(=O)N1 (centres unmarked) [Example 8] | ≥ 100 | C (C < 50.0 to 10.0) | 1 to 5 |  | 
CC1=C(c2nc(-c3ccc(C#N)cc3)cs2)C(c2ccncc2)NC(=O)N1 (centres unmarked) [Example 9] | ≥ 100 | C (C < 50.0 to 10.0) | 1 to 5 |  | 
CC1=C(c2nc(-c3ccc(C#N)cc3)cs2)C(c2cc3ccccc3s2)NC(=O)N1 (centres unmarked) [Example 12] | ≥ 100 | C (C < 50.0 to 10.0) | 1 to 5 |  | 
CC1=C(c2nc(-c3ccc(C#N)cc3)cs2)C(c2cc(Br)cs2)NC(=O)N1 (centres unmarked) [Example 13] | ≥ 100 | D (D < 10.0) | 5 to 100 |  | 
CC1=C(c2nc(-c3ccc(C#N)cc3)cs2)C(c2cccs2)NC(=O)N1 (centres unmarked) [Example 14] | ≥ 100 | C (C < 50.0 to 10.0) | 5 to 100 |  | 
CC1=C(c2nc(-c3ccc(C#N)cc3)cs2)C(c2nccn2C)NC(=O)N1 (centres unmarked) [Example 16] | ≥ 100 | D (D < 10.0) | > 100 |  | 
CC1=C(c2nc(-c3ccc(C#N)cc3)cs2)C(c2cncc(F)c2)NC(=O)N1 (centres unmarked) [Example 20] | ≥ 100 | A (A = TI (TC50/IC50) ≧ 100.0) | < 1 |  | 
CC1=C(c2nc(-c3ccc(C#N)cc3)cs2)C(c2cc(=O)[nH]c(=O)[nH]2)NC(=O)N1 (centres unmarked) [Example 22] | ≥ 100 | D (D < 10.0) | > 100 |  | 
CC1=C(c2nc(-c3ccc(C#N)cc3)cs2)C(c2ccnc(Cl)c2)NC(=O)N1 (centres unmarked) [Example 24] | ≥ 100 | C (C < 50.0 to 10.0) | 5 to 100 |  | 
COc1ncccc1C1NC(=O)NC(C)=C1c1nc(-c2ccc(C#N)cc2)cs1 (centres unmarked) [Example 27] | ≥ 100 | C (C < 50.0 to 10.0) | 5 to 100 |  | 
COc1ncc(C2NC(=O)NC(C)=C2c2nc(-c3ccc(C#N)cc3)cs2)cn1 (centres unmarked) [Example 31] | ≥ 100 | C (C < 50.0 to 10.0) | 1 to 5 |  | 
COc1ncc(C2NC(=O)NC(C)=C2c2nc(-c3ccc(C#N)cc3)cs2)c(OC)n1 (centres unmarked) [Example 32] | ≥ 100 | D (D < 10.0) | 5 to 100 |  | 

Molecule | CC50 at 48 h [1] [µM] | TI (TC50/IC50) [2] | IC50 ([2]; Human immunodeficiency virus 1) [µM] | IC50 [3] [µM] | IC50 [2] [µM]
CC1=C(c2nc(-c3cccs3)cs2)C(c2cccc(O)c2)NC(=O)N1 (centres unmarked) [Example 37] | ≥ 100 | D (D < 10.0) | 5 to 100 |  | 
COc1ccc(-c2csc(C3=C(C)NC(=O)NC3c3ccccc3)n2)cc1 (centres unmarked) [Example 39] | ≥ 100 | D (D < 10.0) | 5 to 100 |  | 
COc1ccc(-c2csc(C3=C(C)NC(=O)NC3c3ccc(Cl)nc3)n2)cc1 (centres unmarked) [Example 41] | 50 to 100 | D (D < 10.0) | 5 to 100 |  | 
COc1ccc(-c2csc(C3=C(C)NC(=O)NC3c3cccc(C(F)(F)F)c3)n2)cc1 (centres unmarked) [Example 45] | ≥ 100 | D (D < 10.0) | > 100 |  | 
COc1ccc(-c2csc(C3=C(C)NC(=O)NC3c3cccc(O)c3)n2)cc1 (centres unmarked) [Example 46] | ≥ 100 | D (D < 10.0) | 5 to 100 |  | 
CC1=C(c2nc(-c3ccc(C#N)cc3)cs2)C(c2ccc(F)cc2)NC(=O)N1 (centres unmarked) [Example 49] | ≥ 100 | C (C < 50.0 to 10.0) | 1 to 5 |  | 
CC1=C(c2nc(-c3ccc(C#N)cc3)cs2)C(c2cccc(Cl)c2)NC(=O)N1 (centres unmarked) [Example 51] | ≥ 100 | C (C < 50.0 to 10.0) | 5 to 100 |  | 
CC1=C(c2nc(-c3ccc(C#N)cc3)cs2)C(c2ccc(OCc3ccccc3)cc2)NC(=O)N1 (centres unmarked) [Example 52] | ≥ 100 | C (C < 50.0 to 10.0) | 1 to 5 |  | 
CC1=C(c2nc(-c3ccc(C#N)cc3)cs2)C(c2cc(F)cc(F)c2)NC(=O)N1 (centres unmarked) [Example 53] | ≥ 100 | C (C < 50.0 to 10.0) | 1 to 5 |  | 
CC1=C(c2nc(-c3ccc(C#N)cc3)cs2)C(c2ccc(N(C)C)cc2)NC(=O)N1 (centres unmarked) [Example 54] | 50 to 100 | C (C < 50.0 to 10.0) | 5 to 100 |  | 
CC1=C(c2nc(-c3ccc(C#N)cc3)cs2)C(c2ccc([N+](=O)[O-])cc2)NC(=O)N1 (centres unmarked) [Example 55] | ≥ 100 | C (C < 50.0 to 10.0) | 5 to 100 |  | 
CC1=C(c2nc(-c3ccc(C#N)cc3)cs2)C(c2ccc(F)c(C#N)c2)NC(=O)N1 (centres unmarked) [Example 56] | ≥ 100 | C (C < 50.0 to 10.0) | 5 to 100 |  | 
CC1=C(c2nc(-c3ccc(C#N)cc3)cs2)C(c2ccc(C#N)c(F)c2)NC(=O)N1 (centres unmarked) [Example 57] | ≥ 100 | C (C < 50.0 to 10.0) | 5 to 100 |  | 
CC1=C(c2nc(-c3ccc(C#N)cc3)cs2)C(c2ccc(-c3ccccc3)cc2)NC(=O)N1 (centres unmarked) [Example 58] | ≥ 100 | C (C < 50.0 to 10.0) | 1 to 5 |  | 
Maraviroc [reference compound] |  |  |  | 0.009 | 0.0006
